Test results: US11998549B2, “Methods of treating a vascular leakage-associated disease or disorder” (UNITY HEALTH TORONTO, priority 2019, dated 2024)

How the values were obtained:
[1] = test system: CLP-induced protein exudation into the alveolar space; assay: Mouse CLP model, protein leakage into BALF; type: in vivo; conditions: intravenous infusion of 1 mg/kg
Method: The CLP model is a well established clinically relevant model for human sepsis (Smeding et al., 2012; Amatullah et al., 2016). Male 8-12 week old C57/B16 mice (Jackson lab) were randomized to CLP or sham surgeries. In anesthetised mice, the cecum was exteriorized, ligated, and perforated. Control animals were exposed to sham surgery, in which the cecum was manipulated, but not ligated or punctured. After surgery, animals received daily fluid resuscitation (subcutaneous (s.c.) 50 ml/kg saline), antibiotic (intraperitoneal (i.p.) imipenem 25 mg/kg) and pain management (s.c. buprenorphine 0.2 mg/kg). Experiments were divided into 2 groups: (1) to assess 7-day survival, and (2) to identify a mechanism of action of a G9a inhibitor in vivo. All experimental mice were randomized and investigators were blinded to group assignment.
Assessment of protective effects of UNC0642 on sepsis-induced vascular leakage: lung injury score and loss of alveolar-capillary membrane integrity with increased albumin and IgM exudation into bronchoalveolar lavage fluid (BALF) was assessed at 24 hrs post treatment.

[2] = molecular target: T1, active human EHMT2/G9a protein fragment (Homo sapiens, UniProt Q96KQ7); assay: G9a inhibitor in vitro histone methyltransferase assay; type: biochemical
T1 construct: active human EHMT2/G9a protein fragment (ab80323); purchased ab80323
T1 sequence (Q96KQ7 785-1210 limits assumed): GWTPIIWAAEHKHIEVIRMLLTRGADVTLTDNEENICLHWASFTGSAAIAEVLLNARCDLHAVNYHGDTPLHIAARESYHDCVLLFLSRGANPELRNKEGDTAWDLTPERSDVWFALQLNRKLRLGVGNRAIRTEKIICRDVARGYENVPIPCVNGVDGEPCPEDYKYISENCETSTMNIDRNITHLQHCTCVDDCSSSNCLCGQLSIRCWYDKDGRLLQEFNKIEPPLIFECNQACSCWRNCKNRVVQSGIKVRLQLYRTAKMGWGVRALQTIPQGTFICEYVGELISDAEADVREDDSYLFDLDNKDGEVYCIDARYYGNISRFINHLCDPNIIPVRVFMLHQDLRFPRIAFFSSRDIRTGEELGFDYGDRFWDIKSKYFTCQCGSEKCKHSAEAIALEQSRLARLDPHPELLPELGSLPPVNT
Source text: The commercially available Histone H3 (K9) Methyltransferase Activity Quantification Assay Kit (ab113453) was used for this assay and a modified protocol was adopted. Briefly, the histone substrate is stably captured on the strip wells. Uninhibited G9a methyltransferase (active human EHMT2/G9a protein fragment (ab80323)) will transfer a methyl group to histone H3 substrate from Adomet to methylate the substrate at lysine 9. The methylated histone H3K9 can be recognized with a high-affinity antibody. The ratio or amount of methylated H3K9, which is directly proportional to enzyme activity, can be quantified through HRP-conjugated secondary antibody color development system. In the presence of inhibitors of G9a methyltransferase, this reaction will be inhibited. […] The color should change to yellow and absorbance can be read on a microplate reader at 450 nm within 2-15 minutes.
G9a activity or inhibition was calculated as follows: plot OD value versus amount of G9a Standard and determine the slope. […]

[3] = test system: LPS induced zebrafish sepsis model; assay: Survival in LPS induced zebrafish sepsis model; type: in vivo; conditions: 24 h
Method: An LPS induced zebrafish sepsis model which mimics the hallmarks of human sepsis was developed (Philip et al., 2017). Zebrafish show varied susceptibility and responsiveness to LPS from different bacterial strains. Exposure of zebrafish larvae at 3 days post-fertilization (dpf) to two types of LPS (LPS from Escherichia coli 0111:B4 (Sigma) at 100 μg/ml for 5-6 hrs; or LPS from Salmonella at 27 μg/ml for 24 hrs) were both effective in inducing tail fin swelling, increased ROS production, increased vascular leakage and increased mortality.
Survival analyses for zebrafish (wildtype) exposed to various concentrations of LPS (Escherichia coli 0111:B4; Sigma) was performed. 3 dpf larvae were exposed to LPS by immersion technique. Larvae were treated with 10, 25, 50, 125, 250, 500, 1000, 2500, 5000 or 10000 nM UNC0642 along with 100 μg/ml LPS (LPS was dissolved in eggwater), by static immersion at 28.5° C. for 24 h in a total volume of 2 mL per treatment. Control larvae were exposed to egg water. Survival numbers were recorded and EC50s calculated.
3 dpf larvae were exposed to LPS by immersion technique. […] Control larvae were exposed to egg water. Survival numbers were recorded and EC50s calculated. The percentage (%) of embryos showing vascular leakage was also recorded and 1050s calculated.

Q: `COc1cc2c(NC3CCN(C(C)C)CC3)nc(N3CCC(F)(F)CC3)nc2cc1OCCCN1CCCC1` [UNC0642, 2-(4,4-Difluoropiperidin-1-yl)-6-methoxy-N-[1-(propan-2-yl)piperidin-4-yl]-7-(3-(pyrrolidin-1-yl)propoxy]quinazolin-4-amine] was tested. Which “Protein exudation into the alveolar space (total alveolar protein in the BALF)” value [1] did it give?
A: Its value is “reduced protein exudation”.

Q: And the G9a methyltransferase activity [2]?
A: Its G9a methyltransferase activity is “inhibits G9a methyltransferase activity in a dose dependent manner”.

Q: And the EC50 ([3]; Escherichia coli, in Danio rerio, read-out: EC50 for improved survival of septic zebrafish larvae)?
A: Its EC50 is 0.789 µM.

Q: What about the “Rescue of sepsis-associated mortality” value ([3]; comparison of UNC0642 and A366, zebrafish larvae, 27 μg/ml LPS) of the same molecule?
A: Its value is “able to rescue”.
